Test results taken from patent US11236087B2, “Highly active pyrazolo-piperidine substituted indole-2-carboxamides active against the hepatitis B virus (HBV)” (AiCuris GmbH & Co. KG, priority 2017, dated 2022).

Legend:
HBV = assay: Determination of HBV DNA from the supernatants of HepAD38 cells (anti-HBV activity); assay type: cell-based, hepatitis B virus; conditions: Hepatitis B virus, 144 h; HBV DNA in HepAD38 supernatant, day 6, qPCR; read-out: Cell Activity (EC50)
In short: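 Supernatant viral DNA was measured by LightCycler qPCR, calibrated with pCH-9/3091 plasmid, 6 days after tetracycline-free HepAD38 cultures received half-log serial compound dilutions; untreated and tetracycline-treated cells served as controls; EC50 was fitted by non-linear regression.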

HBV core protein = target: T1, HBV core protein (UniProt P03146); assay: Biochemical capsid assembly assay (fluorescence quenching); set-up: species or system hepatitis B virus; conditions: read-out: Assembly Activity (IC50); BODIPY-FL labelled core protein, 300 μM NaCl, read 6 min after start
T1 construct: fused on or other part: BODIPY-FL maleimide label on the C-terminal Cys150
In short: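 Assembly-induced fluorescence quenching (477/525 nm) was measured 6 min after NaCl addition ([…]), against 2.5 M and 0 M NaCl controls. The labelled C150 core dimer (truncated at 149) at 1.0-2.0 μM in HEPES pH 7.5 was tested with eight half-log compound dilutions, top 100, 31.6 or 10 μM. EC50 was obtained by non-linear fit from triplicates run three times.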

[1] = Cell viability assay (AlamarBlue) in HepAD38 cells; conditions: human

T1 sequence (P03146 whole entry, looked up, the tested form may be a part): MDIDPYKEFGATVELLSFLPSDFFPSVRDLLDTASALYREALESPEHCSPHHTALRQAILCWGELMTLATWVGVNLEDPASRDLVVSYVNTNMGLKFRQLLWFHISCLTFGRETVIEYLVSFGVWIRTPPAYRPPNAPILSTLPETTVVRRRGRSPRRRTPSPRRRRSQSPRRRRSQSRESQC

O=C(c1cc2ccccc2[nH]1)N1CCc2[nH]nc(C(=O)N3C[C@H]4CCO[C@H]4C3)c2C1 [Example 152, 2-{3-[(3aR,6aR)-hexahydro-2H-furo[2,3-c]pyrrole-5-carbonyl]-1H,4H,5H,6H,7H-pyrazolo[4,3-c]pyridine-5-carbonyl}-1H-indole]
EC50 (HBV): 1 to 25 µM | IC50 (HBV core protein): < 100 µM | CC50 at 6 days [1]: > 10 µM

O=C(c1cc2ccccc2[nH]1)N1CCc2[nH]nc(C(=O)N3CC4COCC4C3)c2C1 (stereo not drawn) [Example 153, 2-(3-{hexahydro-1H-furo[3,4-c]pyrrole-5-carbonyl}-1H,4H,5H,6H,7H-pyrazolo[4,3-c]pyridine-5-carbonyl)-1H-indole]
EC50 (HBV): 1 to 25 µM | IC50 (HBV core protein): < 100 µM | CC50 at 6 days [1]: > 10 µM

COCC1(N(C)C(=O)c2n[nH]c3c2CN(C(=O)c2cc4ccccc4[nH]2)CC3)CCC1 [Example 154, 5-(1H-indole-2-carbonyl)-N-[1-(methoxymethyl)cyclobutyl]-N-methyl-1H,4H,5H,6H,7H-pyrazolo[4,3-c]pyridine-3-carboxamide]
EC50 (HBV): < 1 µM | IC50 (HBV core protein): 5 to 10 µM | CC50 at 6 days [1]: > 10 µM

COCC1(N(C)C(=O)c2n[nH]c3c2CN(C(=O)c2cc4ccccc4[nH]2)CC3)CC1 [Example 155, 5-(1H-indole-2-carbonyl)-N-[1-(methoxymethyl)cyclopropyl]-N-methyl-1H,4H,5H,6H,7H-pyrazolo[4,3-c]pyridine-3-carboxamide]
EC50 (HBV): < 1 µM | IC50 (HBV core protein): < 5 µM | CC50 at 6 days [1]: > 10 µM

O=C(c1cc2ccccc2[nH]1)N1CCc2[nH]nc(C(=O)N3CC[C@@H](O)C3)c2C1 [Example 156, (3R)-1-[5-(1H-indole-2-carbonyl)-1H,4H,5H,6H,7H-pyrazolo[4,3-c]pyridine-3-carbonyl]pyrrolidin-3-ol]
EC50 (HBV): 1 to 25 µM | IC50 (HBV core protein): < 100 µM | CC50 at 6 days [1]: > 10 µM

O=C(c1cc2ccccc2[nH]1)N1CCc2[nH]nc(C(=O)N3CC[C@H](O)C3)c2C1 [Example 157, (3S)-1-[5-(1H-indole-2-carbonyl)-1H,4H,5H,6H,7H-pyrazolo[4,3-c]pyridine-3-carbonyl]pyrrolidin-3-ol]
EC50 (HBV): 1 to 25 µM | IC50 (HBV core protein): < 100 µM | CC50 at 6 days [1]: > 10 µM

O=C(c1cc2ccccc2[nH]1)N1CCc2[nH]nc(C(=O)N3CCS(=O)(=O)CC3)c2C1 [Example 158, 4-[5-(1H-indole-2-carbonyl)-1H,4H,5H,6H,7H-pyrazolo[4,3-c]pyridine-3-carbonyl]-1lambda6-thiomorpholine-1,1-dione]
EC50 (HBV): 1 to 25 µM | IC50 (HBV core protein): < 100 µM | CC50 at 6 days [1]: > 10 µM

O=C(c1cc2ccccc2[nH]1)N1CCc2[nH]nc(C(=O)N3CCSCC3)c2C1 [Example 159, 2-[3-(thiomorpholine-4-carbonyl)-1H,4H,5H,6H,7H-pyrazolo[4,3-c]pyridine-5-carbonyl]-1H-indole]
EC50 (HBV): < 1 µM | IC50 (HBV core protein): < 5 µM | CC50 at 6 days [1]: > 10 µM

COC1CCN(C(=O)c2n[nH]c3c2CN(C(=O)c2cc4ccccc4[nH]2)CC3)CC1 [Example 160, 2-[3-(4-methoxypiperidine-1-carbonyl)-1H,4H,5H,6H,7H-pyrazolo[4,3-c]pyridine-5-carbonyl]-1H-indole]
EC50 (HBV): < 1 µM | IC50 (HBV core protein): < 100 µM | CC50 at 6 days [1]: > 10 µM

O=C(c1cc2ccccc2[nH]1)N1CCc2[nH]nc(C(=O)N3CCC[C@@H](O)C3)c2C1 [Example 161, (3R)-1-[5-(1H-indole-2-carbonyl)-1H,4H,5H,6H,7H-pyrazolo[4,3-c]pyridine-3-carbonyl]piperidin-3-ol]
EC50 (HBV): < 1 µM | IC50 (HBV core protein): 5 to 10 µM | CC50 at 6 days [1]: > 10 µM

O=C(c1cc2ccccc2[nH]1)N1CCc2[nH]nc(C(=O)N3CCC[C@H](O)C3)c2C1 [Example 162, (3S)-1-[5-(1H-indole-2-carbonyl)-1H,4H,5H,6H,7H-pyrazolo[4,3-c]pyridine-3-carbonyl]piperidin-3-ol]
EC50 (HBV): 1 to 25 µM | IC50 (HBV core protein): < 100 µM | CC50 at 6 days [1]: > 10 µM

CC(=O)N1CCN(C(=O)c2n[nH]c3c2CN(C(=O)c2cc4ccccc4[nH]2)CC3)C(C)(C)C1 [Example 163, 1-{4-[5-(1H-indole-2-carbonyl)-1H,4H,5H,6H,7H-pyrazolo[4,3-c]pyridine-3-carbonyl]-3,3-dimethylpiperazin-1-yl}ethan-1-one]
EC50 (HBV): 1 to 25 µM | IC50 (HBV core protein): < 100 µM | CC50 at 6 days [1]: > 10 µM

CC1(C)CCCCN1C(=O)c1n[nH]c2c1CN(C(=O)c1cc3ccccc3[nH]1)CC2 [Example 165, 2-[3-(2,2-dimethylpiperidine-1-carbonyl)-1H,4H,5H,6H,7H-pyrazolo[4,3-c]pyridine-5-carbonyl]-1H-indole]
EC50 (HBV): < 1 µM | IC50 (HBV core protein): 5 to 10 µM | CC50 at 6 days [1]: > 10 µM

COCC1(N(C)C(=O)c2n[nH]c3c2CN(C(=O)c2cc4ccc(F)cc4[nH]2)CC3)CC1 [Example 166, 5-(6-fluoro-1H-indole-2-carbonyl)-N-[1-(methoxymethyl)cyclopropyl]-N-methyl-1H,4H,5H,6H,7H-pyrazolo[4,3-c]pyridine-3-carboxamide]
EC50 (HBV): < 1 µM | IC50 (HBV core protein): < 5 µM | CC50 at 6 days [1]: > 10 µM

O=C(c1cc2ccccc2[nH]1)N1CCc2[nH]nc(C3CCC3)c2C1 [Example 167, 2-{3-cyclobutyl-1H,4H,5H,6H,7H-pyrazolo[4,3-c]pyridine-5-carbonyl}-1H-indole]
EC50 (HBV): < 1 µM | IC50 (HBV core protein): < 5 µM | CC50 at 6 days [1]: > 10 µM

CN(C(=O)c1n[nH]c2c1CN(C(=O)c1cc3ccccc3[nH]1)CC2)C1CCCCC1 [Example 170, N-cyclohexyl-5-(1H-indole-2-carbonyl)-N-methyl-1H,4H,5H,6H,7H-pyrazolo[4,3-c]pyridine-3-carboxamide]
EC50 (HBV): 1 to 25 µM | IC50 (HBV core protein): 5 to 10 µM | CC50 at 6 days [1]: > 10 µM

CN(CC(=O)OC(C)(C)C)C(=O)c1n[nH]c2c1CN(C(=O)c1cc3ccccc3[nH]1)CC2 [Example 171, tert-butyl 2-{1-[5-(1H-indole-2-carbonyl)-1H,4H,5H,6H,7H-pyrazolo[4,3-c]pyridin-3-yl]-N-methylformamido}acetate]
EC50 (HBV): 1 to 25 µM | IC50 (HBV core protein): < 100 µM | CC50 at 6 days [1]: > 10 µM

CN(CCO)C(=O)c1n[nH]c2c1CN(C(=O)c1cc3c(C(F)F)ccc(F)c3[nH]1)CC2 [Example 172, 5-[4-(difluoromethyl)-7-fluoro-1H-indole-2-carbonyl]-N-(2-hydroxyethyl)-N-methyl-1H,4H,5H,6H,7H-pyrazolo[4,3-c]pyridine-3-carboxamide]
EC50 (HBV): 1 to 25 µM | IC50 (HBV core protein): < 5 µM | CC50 at 6 days [1]: > 10 µM

CN(C(=O)c1n[nH]c2c1CN(C(=O)c1cc3ccccc3[nH]1)CC2)[C@H]1CC[C@H](O)CC1 [Example 173, 5-(1H-indole-2-carbonyl)-N-methyl-N-[(1r,4r)-4-hydroxycyclohexyl]-1H,4H,5H,6H,7H-pyrazolo[4,3-c]pyridine-3-carboxamide]
EC50 (HBV): 1 to 25 µM | IC50 (HBV core protein): < 100 µM | CC50 at 6 days [1]: > 10 µM

CN(C(=O)c1n[nH]c2c1CN(C(=O)c1cc3ccccc3[nH]1)CC2)[C@H]1CC[C@@H](O)CC1 [Example 174, 5-(1H-indole-2-carbonyl)-N-methyl-N-[(1s,4s)-4-hydroxycyclohexyl]-1H,4H,5H,6H,7H-pyrazolo[4,3-c]pyridine-3-carboxamide]
EC50 (HBV): 1 to 25 µM | IC50 (HBV core protein): < 100 µM | CC50 at 6 days [1]: > 10 µM
